Measurements: US20240000791A1, “Methods of Using 4-Amino-N-[4-(Methoxymethyl)Phenyl]-7-(1-Methylcyclopropyl)-6-(3-Morpholinoprop-1-YN-1-YL)-7H-Pyrrolo[2,3-D]Pyrimidine-5-Carboxamide for the Treatment of Tumors” (Helsinn Healthcare SA, priority 2020, published 2024)
Like-named read-outs stand apart in the source and are kept apart here.

What was measured:
[1] = biological target: JAK2 (Homo sapiens, UniProt O60674); experiment: Kinase inhibition; type: biochemical
[2] = biological target: T1, FLT3 (Homo sapiens, UniProt P36888); experiment: Kinase inhibition; type: biochemical
T1 sequence (P36888 27-993): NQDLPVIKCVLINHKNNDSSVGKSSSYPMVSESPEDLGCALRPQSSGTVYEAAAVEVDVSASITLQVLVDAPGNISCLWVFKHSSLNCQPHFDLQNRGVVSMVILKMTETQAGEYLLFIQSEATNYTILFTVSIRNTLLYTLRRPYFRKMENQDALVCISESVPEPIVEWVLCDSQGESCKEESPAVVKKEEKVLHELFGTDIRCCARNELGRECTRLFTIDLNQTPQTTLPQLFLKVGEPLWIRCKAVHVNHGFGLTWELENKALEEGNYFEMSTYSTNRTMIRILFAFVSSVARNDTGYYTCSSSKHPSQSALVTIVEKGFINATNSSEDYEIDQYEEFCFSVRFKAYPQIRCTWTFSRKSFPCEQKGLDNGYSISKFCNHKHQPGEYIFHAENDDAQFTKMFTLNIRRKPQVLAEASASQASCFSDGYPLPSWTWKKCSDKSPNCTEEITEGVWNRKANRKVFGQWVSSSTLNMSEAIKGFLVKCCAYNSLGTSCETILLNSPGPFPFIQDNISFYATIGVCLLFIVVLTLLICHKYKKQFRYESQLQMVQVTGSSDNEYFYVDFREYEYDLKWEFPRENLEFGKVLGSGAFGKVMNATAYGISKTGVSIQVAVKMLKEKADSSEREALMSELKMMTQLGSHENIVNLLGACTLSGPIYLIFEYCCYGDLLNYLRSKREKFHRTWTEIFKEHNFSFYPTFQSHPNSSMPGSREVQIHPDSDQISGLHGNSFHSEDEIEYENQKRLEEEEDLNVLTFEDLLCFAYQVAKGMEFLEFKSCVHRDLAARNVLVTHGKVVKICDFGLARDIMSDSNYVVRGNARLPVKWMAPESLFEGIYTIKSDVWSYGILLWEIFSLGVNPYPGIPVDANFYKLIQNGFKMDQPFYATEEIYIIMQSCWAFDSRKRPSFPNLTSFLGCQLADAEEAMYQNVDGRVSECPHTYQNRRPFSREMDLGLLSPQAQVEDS

[3] = biological target: FLT4 (Homo sapiens, UniProt P35916); experiment: Kinase inhibition; type: biochemical
FLT4, sequence (P35916 25-1363): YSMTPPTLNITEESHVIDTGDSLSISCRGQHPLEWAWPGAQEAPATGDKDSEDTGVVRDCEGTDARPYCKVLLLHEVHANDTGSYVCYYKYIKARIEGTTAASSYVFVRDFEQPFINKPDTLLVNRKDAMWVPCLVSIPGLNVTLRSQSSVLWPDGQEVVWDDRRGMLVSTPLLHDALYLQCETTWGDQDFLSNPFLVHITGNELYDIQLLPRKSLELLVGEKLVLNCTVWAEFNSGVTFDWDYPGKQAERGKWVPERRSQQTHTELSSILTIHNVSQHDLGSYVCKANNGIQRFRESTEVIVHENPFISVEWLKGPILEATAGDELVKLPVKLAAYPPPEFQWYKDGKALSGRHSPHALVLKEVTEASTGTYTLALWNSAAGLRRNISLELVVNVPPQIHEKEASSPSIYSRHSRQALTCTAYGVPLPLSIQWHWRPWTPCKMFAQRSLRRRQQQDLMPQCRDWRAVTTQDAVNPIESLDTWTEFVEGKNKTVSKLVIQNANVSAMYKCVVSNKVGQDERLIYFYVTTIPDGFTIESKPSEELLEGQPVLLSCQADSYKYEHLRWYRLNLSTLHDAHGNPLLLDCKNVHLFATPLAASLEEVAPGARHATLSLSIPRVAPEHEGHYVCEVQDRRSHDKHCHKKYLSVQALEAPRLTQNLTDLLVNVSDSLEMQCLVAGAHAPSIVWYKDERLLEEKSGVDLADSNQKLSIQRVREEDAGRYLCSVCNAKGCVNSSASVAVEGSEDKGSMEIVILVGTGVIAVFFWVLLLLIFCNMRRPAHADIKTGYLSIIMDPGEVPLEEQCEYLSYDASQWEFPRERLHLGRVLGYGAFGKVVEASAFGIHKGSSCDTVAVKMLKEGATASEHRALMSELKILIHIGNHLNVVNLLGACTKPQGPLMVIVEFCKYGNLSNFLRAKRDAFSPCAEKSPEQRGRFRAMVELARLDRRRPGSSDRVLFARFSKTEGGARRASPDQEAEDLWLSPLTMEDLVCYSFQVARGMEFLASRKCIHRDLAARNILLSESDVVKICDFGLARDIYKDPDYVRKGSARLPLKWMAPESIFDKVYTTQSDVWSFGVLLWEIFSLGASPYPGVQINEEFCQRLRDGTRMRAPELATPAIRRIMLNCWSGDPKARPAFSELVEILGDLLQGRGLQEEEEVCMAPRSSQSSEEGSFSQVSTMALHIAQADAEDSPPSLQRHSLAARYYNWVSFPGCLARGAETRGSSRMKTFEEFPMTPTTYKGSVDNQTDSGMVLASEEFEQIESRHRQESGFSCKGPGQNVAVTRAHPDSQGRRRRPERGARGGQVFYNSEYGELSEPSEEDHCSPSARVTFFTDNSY

[4] = biological target: FGFR2 (Homo sapiens, UniProt P21802); experiment: Kinase inhibition; type: biochemical
FGFR2, sequence (P21802 22-821): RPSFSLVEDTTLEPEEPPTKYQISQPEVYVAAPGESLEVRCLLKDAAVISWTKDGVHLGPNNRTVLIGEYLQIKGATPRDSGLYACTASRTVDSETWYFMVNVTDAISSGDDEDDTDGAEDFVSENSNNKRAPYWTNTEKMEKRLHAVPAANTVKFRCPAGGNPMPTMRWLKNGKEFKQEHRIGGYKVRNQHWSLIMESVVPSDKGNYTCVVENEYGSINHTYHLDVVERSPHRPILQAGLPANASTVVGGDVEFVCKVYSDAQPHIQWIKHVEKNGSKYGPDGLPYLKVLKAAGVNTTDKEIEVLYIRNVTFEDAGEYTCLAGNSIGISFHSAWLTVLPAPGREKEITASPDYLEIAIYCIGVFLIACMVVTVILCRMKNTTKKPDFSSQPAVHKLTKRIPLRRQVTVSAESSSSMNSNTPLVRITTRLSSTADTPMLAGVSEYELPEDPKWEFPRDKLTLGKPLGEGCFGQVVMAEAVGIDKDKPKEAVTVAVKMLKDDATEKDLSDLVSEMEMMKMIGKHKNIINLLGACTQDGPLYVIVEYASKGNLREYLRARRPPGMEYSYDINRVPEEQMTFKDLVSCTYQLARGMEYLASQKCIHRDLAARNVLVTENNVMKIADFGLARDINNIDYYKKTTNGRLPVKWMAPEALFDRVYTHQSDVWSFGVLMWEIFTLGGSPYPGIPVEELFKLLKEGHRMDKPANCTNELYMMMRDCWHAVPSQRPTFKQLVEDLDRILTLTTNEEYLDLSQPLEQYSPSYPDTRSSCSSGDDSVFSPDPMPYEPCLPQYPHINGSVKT

[5] = biological target: FGFR1 (Homo sapiens, UniProt P11362); experiment: Kinase inhibition; type: biochemical
FGFR1, sequence (P11362 22-822): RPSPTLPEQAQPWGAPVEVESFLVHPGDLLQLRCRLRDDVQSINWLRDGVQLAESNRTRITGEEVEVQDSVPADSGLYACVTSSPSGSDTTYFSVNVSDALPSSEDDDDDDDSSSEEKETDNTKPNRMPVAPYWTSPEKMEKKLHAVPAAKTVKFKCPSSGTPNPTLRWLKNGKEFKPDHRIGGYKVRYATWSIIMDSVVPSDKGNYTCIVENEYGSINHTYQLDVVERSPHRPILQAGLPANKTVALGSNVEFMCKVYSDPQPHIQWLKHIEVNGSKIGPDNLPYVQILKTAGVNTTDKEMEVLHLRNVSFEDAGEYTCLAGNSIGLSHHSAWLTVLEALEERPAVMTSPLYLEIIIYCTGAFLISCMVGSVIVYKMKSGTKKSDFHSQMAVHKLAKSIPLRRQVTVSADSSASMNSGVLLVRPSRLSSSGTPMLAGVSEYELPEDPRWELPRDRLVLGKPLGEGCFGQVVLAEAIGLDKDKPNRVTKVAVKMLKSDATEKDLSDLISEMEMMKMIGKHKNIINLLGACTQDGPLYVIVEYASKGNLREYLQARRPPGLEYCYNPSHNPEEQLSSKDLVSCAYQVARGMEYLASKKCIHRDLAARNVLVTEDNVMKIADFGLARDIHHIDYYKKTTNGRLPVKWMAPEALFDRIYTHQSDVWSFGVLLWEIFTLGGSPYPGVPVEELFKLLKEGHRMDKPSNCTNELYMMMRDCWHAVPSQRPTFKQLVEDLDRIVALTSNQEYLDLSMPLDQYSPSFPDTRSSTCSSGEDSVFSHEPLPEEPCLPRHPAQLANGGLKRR

[6] = biological target: PDGFRβ (Homo sapiens, UniProt P09619); experiment: Kinase inhibition; type: biochemical
PDGFRβ, sequence (P09619 33-1106): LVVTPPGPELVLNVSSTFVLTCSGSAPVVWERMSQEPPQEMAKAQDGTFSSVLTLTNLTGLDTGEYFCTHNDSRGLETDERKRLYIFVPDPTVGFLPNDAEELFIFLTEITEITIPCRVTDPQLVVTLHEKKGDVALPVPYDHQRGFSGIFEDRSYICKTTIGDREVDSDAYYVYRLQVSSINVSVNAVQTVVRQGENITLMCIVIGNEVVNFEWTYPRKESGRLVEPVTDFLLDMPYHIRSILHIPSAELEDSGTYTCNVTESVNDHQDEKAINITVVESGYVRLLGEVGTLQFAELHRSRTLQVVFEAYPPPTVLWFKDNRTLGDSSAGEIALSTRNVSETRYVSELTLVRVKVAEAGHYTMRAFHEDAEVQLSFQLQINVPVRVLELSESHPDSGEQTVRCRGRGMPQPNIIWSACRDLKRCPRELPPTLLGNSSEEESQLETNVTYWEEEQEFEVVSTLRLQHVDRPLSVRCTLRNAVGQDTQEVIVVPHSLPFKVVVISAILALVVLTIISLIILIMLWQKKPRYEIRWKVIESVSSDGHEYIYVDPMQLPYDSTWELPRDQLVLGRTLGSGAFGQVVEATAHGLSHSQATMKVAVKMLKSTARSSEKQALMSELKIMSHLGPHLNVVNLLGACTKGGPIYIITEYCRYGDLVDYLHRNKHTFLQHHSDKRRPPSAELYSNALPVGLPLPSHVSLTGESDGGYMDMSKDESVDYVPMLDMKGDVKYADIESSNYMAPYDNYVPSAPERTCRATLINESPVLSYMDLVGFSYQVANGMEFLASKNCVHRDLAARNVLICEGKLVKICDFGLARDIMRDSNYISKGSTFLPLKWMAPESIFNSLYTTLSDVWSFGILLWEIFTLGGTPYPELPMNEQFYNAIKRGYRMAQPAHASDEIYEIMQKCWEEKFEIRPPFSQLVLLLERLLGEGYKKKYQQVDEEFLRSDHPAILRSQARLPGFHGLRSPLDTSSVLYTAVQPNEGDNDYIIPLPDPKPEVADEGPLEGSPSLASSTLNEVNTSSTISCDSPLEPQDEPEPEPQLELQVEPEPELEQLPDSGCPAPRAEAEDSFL

[7] = system: Ba/F3 KIF5B-RET^G810R cells; experiment: Ba/F3 KIF5B-RET G810R subcutaneous tumor model, first study; type: in vivo, mouse; settings: 14 days; for tumor regrowth at the end of the study: 30 mg/kg bid oral
[8] = biological target: T2, JAK3 (Homo sapiens, UniProt P52333); experiment: Kinase inhibition; type: biochemical
T2 sequence (P52333 1-1124): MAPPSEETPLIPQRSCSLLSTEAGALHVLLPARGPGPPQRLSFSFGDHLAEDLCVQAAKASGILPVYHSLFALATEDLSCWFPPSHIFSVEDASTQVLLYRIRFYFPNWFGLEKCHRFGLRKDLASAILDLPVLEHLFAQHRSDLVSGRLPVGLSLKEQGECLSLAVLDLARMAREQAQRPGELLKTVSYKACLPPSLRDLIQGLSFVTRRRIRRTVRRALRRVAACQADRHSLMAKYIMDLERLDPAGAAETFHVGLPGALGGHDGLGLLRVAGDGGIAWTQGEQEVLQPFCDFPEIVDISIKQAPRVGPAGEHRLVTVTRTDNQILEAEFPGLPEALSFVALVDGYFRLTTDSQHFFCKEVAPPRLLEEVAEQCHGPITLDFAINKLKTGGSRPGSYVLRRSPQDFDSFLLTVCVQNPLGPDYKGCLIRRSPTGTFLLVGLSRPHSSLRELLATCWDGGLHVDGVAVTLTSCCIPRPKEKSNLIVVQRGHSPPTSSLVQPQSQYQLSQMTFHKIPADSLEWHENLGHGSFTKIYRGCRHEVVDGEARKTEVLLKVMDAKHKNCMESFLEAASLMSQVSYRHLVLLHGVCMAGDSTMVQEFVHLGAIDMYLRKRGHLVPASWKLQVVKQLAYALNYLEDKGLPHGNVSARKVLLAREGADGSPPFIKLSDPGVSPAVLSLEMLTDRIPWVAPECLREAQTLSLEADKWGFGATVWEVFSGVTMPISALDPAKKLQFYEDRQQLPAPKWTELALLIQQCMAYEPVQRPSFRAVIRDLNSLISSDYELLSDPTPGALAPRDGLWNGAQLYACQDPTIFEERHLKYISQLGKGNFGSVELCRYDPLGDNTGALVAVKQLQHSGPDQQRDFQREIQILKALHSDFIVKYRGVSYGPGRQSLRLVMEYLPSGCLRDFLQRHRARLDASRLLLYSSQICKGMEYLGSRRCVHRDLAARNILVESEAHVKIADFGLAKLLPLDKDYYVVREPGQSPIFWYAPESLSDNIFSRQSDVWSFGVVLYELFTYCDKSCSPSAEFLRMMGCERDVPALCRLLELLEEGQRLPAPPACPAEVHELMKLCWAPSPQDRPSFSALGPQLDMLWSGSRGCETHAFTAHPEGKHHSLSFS

[9] = biological target: FGFR3 (Homo sapiens, UniProt P22607); experiment: Kinase inhibition; type: biochemical
FGFR3, sequence (P22607 23-806): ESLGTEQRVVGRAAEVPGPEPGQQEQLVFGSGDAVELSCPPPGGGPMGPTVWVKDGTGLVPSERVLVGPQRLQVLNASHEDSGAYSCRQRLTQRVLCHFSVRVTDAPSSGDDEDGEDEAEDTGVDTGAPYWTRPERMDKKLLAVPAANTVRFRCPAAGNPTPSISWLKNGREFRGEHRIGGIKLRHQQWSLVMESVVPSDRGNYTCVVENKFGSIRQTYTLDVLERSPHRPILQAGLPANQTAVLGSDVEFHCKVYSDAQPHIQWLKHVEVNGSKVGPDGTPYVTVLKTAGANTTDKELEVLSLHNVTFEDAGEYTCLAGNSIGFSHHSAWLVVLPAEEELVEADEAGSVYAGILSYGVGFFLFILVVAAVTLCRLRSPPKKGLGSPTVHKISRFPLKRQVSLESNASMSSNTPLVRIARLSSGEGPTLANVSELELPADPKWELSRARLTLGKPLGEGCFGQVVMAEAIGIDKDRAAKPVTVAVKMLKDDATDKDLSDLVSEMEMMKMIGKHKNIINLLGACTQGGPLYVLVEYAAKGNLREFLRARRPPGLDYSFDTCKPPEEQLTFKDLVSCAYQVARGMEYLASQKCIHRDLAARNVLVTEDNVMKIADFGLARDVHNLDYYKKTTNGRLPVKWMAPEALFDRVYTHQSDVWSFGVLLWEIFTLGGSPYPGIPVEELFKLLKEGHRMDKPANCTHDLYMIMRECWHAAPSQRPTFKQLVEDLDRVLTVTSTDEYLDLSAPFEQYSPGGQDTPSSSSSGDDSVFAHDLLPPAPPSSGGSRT

[10] = biological target: JAK1 (Homo sapiens, UniProt P23458); experiment: Kinase inhibition; type: biochemical
[11] = system: Ba/F3 KIF5B-RET G810S; experiment: Cell viability CellTiter-Glo 2.0; type: cell-based; settings: Mus musculus, read-out: GI50 values
[12] = system: Ba/F3 KIF5B-RET V804M; experiment: Cell viability CellTiter-Glo 2.0; type: cell-based; settings: Mus musculus, read-out: GI50 values
[13] = system: Ba/F3 KIF5B-RET^G810R cells; experiment: Ba/F3 KIF5B-RET G810R subcutaneous tumor model, second study; type: in vivo, mouse; settings: for tumor regrowth: 30 mg/kg bid, day 15
[14] = read-out: IC50 kinase inhibition, JAK2
[15] = read-out: IC50 kinase inhibition, FLT3
[16] = read-out: IC50 kinase inhibition, FLT4
[17] = read-out: IC50 kinase inhibition, FGFR2
[18] = read-out: IC50 kinase inhibition, FGFR1
[19] = read-out: IC50 kinase inhibition, PDGFRβ
[20] = read-out: IC50 kinase inhibition, JAK3
[21] = read-out: IC50 kinase inhibition, FGFR3
[22] = read-out: IC50 kinase inhibition, JAK1

Row | Structure (SMILES) | IC50 [1, 14] | IC50 [2, 15] | IC50 [3, 16] | IC50 [4, 17] | IC50 [5, 18] | IC50 [6, 19] | tumor regrowth at the end of the study [7] | IC50 [8, 20] | IC50 [9, 21] | IC50 [10, 22] | tumor regrowth [13] | GI50 ([11]; BaF3, 72 h) | GI50 ([12]; BaF3, 72 h) | further results
1 | CO[C@]1(C(=O)N[C@@H](C)c2ccc(-n3cc(F)cn3)nc2)CC[C@H](c2nc(C)cc(Nc3cc(C)[nH]n3)n2)CC1 [BLU-667, pralsetinib] | 1.1 nM | 11 nM | 6.3 nM | 35 nM | 15 nM | 7.7 nM | trend to tumor regrowth | 6.1 nM | 58 nM | 2.6 nM | trend to tumor regrowth at day 15 | – | – | GI50 ([11]; BaF3, Ba/F3 KIF5B-RET G810S, 72 hours, mean±SD of three experiments): 50.6 ± 31.4 nM; GI50 ([12]; BaF3, Ba/F3 KIF5B-RET V804M, 72 hours, mean±SD of three experiments): 8.6 ± 0.58 nM
2 | COCc1ccc(NC(=O)c2c(C#CCN3CCOCC3)n(C3(C)CC3)c3ncnc(N)c23)cc1 [HM06/TAS0953, 4-amino-N-(4-(methoxymethyl)phenyl)-7-(1-methylcyclopropyl)-6-(3-morpholinoprop-1-yn-1-yl)-7H-pyrrolo[2,3-d]pyrimidine-5-carboxamide] | – | – | – | – | – | – | did not show tumor regrowth | – | – | – | – | 11.9 ± 3.6 nM | 39.7 ± 4.6 nM | IC50 [1]: > 3000 nM; IC50 [2]: 911 nM; IC50 [3]: 150 nM; IC50 [4]: 1850 nM; IC50 [5]: 2720 nM; IC50 [6]: 2760 nM; tumor volume at the end of the study vs control ([7]; 10 mg/kg bid oral): significantly decreased tumor volume; IC50 [8]: > 3000 nM; IC50 [9]: 2150 nM; IC50 [10]: > 3000 nM; mean tumor volume on day 15 vs LOXO-292 and BLU-667 30 mg/kg bid ([13]; 50 mg/kg bid): significantly lower in the HM06/TAS0953 group than in the LOXO-292 and BLU-667 groups; tumor regression ([13]; 50 mg/kg bid): consistent tumor regression
3 | COc1ccc(CN2C3CC2CN(c2ccc(-c4cc(OCC(C)(C)O)cn5ncc(C#N)c45)cn2)C3)cn1 [LOXO-292, selpercatinib] | > 3000 nM | 22 nM | 4 nM | 34 nM | 64 nM | 67 nM | trend to tumor regrowth | 2840 nM | 51 nM | > 3000 nM | trend to tumor regrowth at day 15 | 166 ± 20 nM | 33.3 ± 2.9 nM | –
